Measured values published in US20260015350A1, “AZAQUINAZOLINE PAN-KRAS INHIBITORS” (Mirati Therapeutics, Inc., priority 2022, published 2026).

Assays:
[1] = test system: KRas-mediated phosphorylation of ERK in H460 cells; assay: Inhibition of KRas-mediated phosphorylation of ERK (Cisbio HTRF pERK), H460 cells; type: cell-based; conditions: Homo sapiens; for inhibition at 0.1 µM: NCI-H460, 3 h, single point, 100 nM compound, 3 hrs; for IC50: NCI-H460, HTRF pERK
Protocol: (§1) Inhibition of KRas Phosphorylation of ERK (HTRF) by Exemplary Compounds of Formula (I) Cisbio HTRF Advanced PERK Assay Catalog #64[…] […] Add 10 mL of media to stop trypsinizing. Pipette the cells into a conical bottom 50 mL centrifuge tube and centrifuge 5 min×1000 rpm. […] Re-suspend the cell pellet in media, take a cell count, and then adjust the cell density using fresh media. […] Seed 6,000 cells into cell culture plate with 50 μL media. […] Use Tecan to complete the compound addition. Compounds start from 10 uM top, 3-fold dilution, and 10 doses. The final DMSO concentration is 0.8%. Dispensed 0.2 uM Trametinib as Min control. […] Incubate cell plate for 3 hrs in the incubator. […] Dilute 1 volume of 4× lysis buffer with 3 volumes of deionized water. […] Keep lysis buffer on the ice. […] At the end of the compound treatment, flick-off the media. […] Add 35 μL of lysis buffer per well using a Multidrop Combi. Then place on a plate agitator shaking at 300 rpm at 4° C. for 40 mins. […] Make up the HTRF antibody buffer. For each assay plate, mix 50 μL of d2-conjugate antibody with 950 μL of detection buffer. Similarly, mix 50 μL of Cryptate antibody with 950 μL of detection buffer. Then mix the two diluted antibodies together. […] Dispense 3.4 μL the antibody buffer to wells of an empty assay plate. Seal the plate and centrifuge plate 30 sec×1000 rpm. […] At the end of the 4° C. lysis, centrifuge the lysate plates 3 mins×1500 rpm. […] Use the Bravo to transfer 13.6 μL of lysate from cell culture plate to assay plate. Then incubate assay plate for 2 hrs at room temperature. 8. At the end of incubation, read plate on the Envision after centrifuging plate 30 sec×1000 rpm.

[2] = test system: KRas-mediated phosphorylation of ERK in H727 cells; assay: Inhibition of KRas-mediated phosphorylation of ERK (Cisbio HTRF pERK), H727 cells; type: cell-based; conditions: Homo sapiens; for IC50: NCI-H727, H727 cells, HTRF pERK; for inhibition at 0.1 µM: NCI-H727, 3 h, single point, 100 nM compound, 3 hrs, H727 cells
In short: (§2)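 Cells were seeded at 6,000 per well and treated for 3 hrs with compound in a 10-dose, 3-fold series from 10 uM (0.8% final DMSO), with 0.2 uM Trametinib as Min control. Lysates made at 4° C over 40 mins were incubated 2 hrs at room temperature with d2- and Cryptate-labelled antibodies, then read by HTRF.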

KRas^G12R = molecular target: T1, KRas^G12R (Homo sapiens, UniProt P01116, G12R); assay: KRas binding assay (TR-FRET tracer displacement), KRas G12R
T1 construct: Biotinylated KRas (corresponding to amino acids 1-169, produced at Accelegan Inc.); biotin (biotinylated); purchased Accelegan Inc

KRas^G12V = molecular target: T2, KRas^G12V (Homo sapiens, UniProt P01116, G12V); assay: KRas binding assay (TR-FRET tracer displacement), KRas G12V
T2 construct: Biotinylated KRas (corresponding to amino acids 1-169, produced at Accelegan Inc.); biotin (biotinylated); purchased Accelegan Inc

[3] = test system: KRas-mediated phosphorylation of ERK in AsPC-1 cells; assay: Inhibition of KRas-mediated phosphorylation of ERK (Cisbio HTRF pERK), AsPC-1 cells; type: cell-based; conditions: Homo sapiens; for IC50: ASPC1, AsPC-1 cells, HTRF pERK; for inhibition at 0.1 µM: ASPC1, 3 h, single point, 100 nM compound, 3 hrs, AsPC-1 cells
In short: as §2

[4] = test system: KRas-mediated phosphorylation of ERK in HCT116 cells; assay: Inhibition of KRas-mediated phosphorylation of ERK (Cisbio HTRF pERK), HCT116 cells; type: cell-based; conditions: Homo sapiens; for inhibition at 0.1 µM: HCT-116, 3 h, single point, 100 nM compound, 3 hrs; for IC50: HCT-116, HTRF pERK
Protocol: as §1

KRas^G12D = molecular target: T3, KRas^G12D (Homo sapiens, UniProt P01116, G12D); assay: KRas binding assay (TR-FRET tracer displacement), KRas G12D
T3 construct: Biotinylated KRas (corresponding to amino acids 1-169, produced at Accelegan Inc.); biotin (biotinylated); purchased Accelegan Inc

[5] = test system: KRas-mediated phosphorylation of ERK in A549 cells; assay: Inhibition of KRas-mediated phosphorylation of ERK (Cisbio HTRF pERK), A549 cells; type: cell-based; conditions: Homo sapiens, HTRF pERK
Protocol: as §1

T2 sequence (P01116 1-169 isoform P01116-2 G12V): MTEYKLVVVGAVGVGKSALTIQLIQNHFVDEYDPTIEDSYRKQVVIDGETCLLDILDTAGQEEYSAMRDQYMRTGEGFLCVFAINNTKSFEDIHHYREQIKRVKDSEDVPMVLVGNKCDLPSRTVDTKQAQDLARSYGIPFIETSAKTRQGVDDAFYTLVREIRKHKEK
T3 sequence (P01116 1-169 isoform P01116-2 G12D): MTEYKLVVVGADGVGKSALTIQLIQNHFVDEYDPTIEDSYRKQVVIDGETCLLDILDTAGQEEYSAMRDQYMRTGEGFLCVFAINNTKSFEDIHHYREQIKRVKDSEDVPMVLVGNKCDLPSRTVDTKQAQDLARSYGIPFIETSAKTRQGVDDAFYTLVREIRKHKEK
T1 sequence (P01116 1-169 isoform P01116-2 G12R): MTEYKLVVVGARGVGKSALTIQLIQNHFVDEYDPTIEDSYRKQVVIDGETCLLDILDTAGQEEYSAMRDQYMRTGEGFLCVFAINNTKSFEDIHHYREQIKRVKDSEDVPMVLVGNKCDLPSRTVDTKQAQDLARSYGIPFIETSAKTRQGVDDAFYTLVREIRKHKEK

IC50 [2]	IC50 (KRas^G12R)	IC50 (KRas^G12V)	IC50 [3]	IC50 (KRas^G12D)	IC50 [1]	IC50 [5]	IC50 [4]	Structure (SMILES)	inhibition at 0.1 µM [1]	inhibition at 0.1 µM [4]	inhibition at 0.1 µM [2]	inhibition at 0.1 µM [3]
410 nM	10 nM	9 nM	2380 nM	79 nM		742 nM		CCc1c(F)ccc2cc(O)cc(-c3ncc4c(NC5CC6(CCCO6)C5)nc(OC[C@@]56CCCN5C[C@H](F)C6)nc4c3F)c12 (stereo partly drawn) [Example 554, 4-(4-(5-oxaspiro[3.4]octan-2-ylamino)-8-fluoro-2-(((2R,7aS)-2-fluorohexahydro-1H-pyrrolizin-7a-yl)methoxy)pyrido[4,3-d]pyrimidin-7-yl)-5-ethyl-6-fluoronaphthalen-2-ol]				
> 10000 nM	37 nM	10 nM		45 nM				CCc1c(F)ccc2cc(O)cc(-c3ncc4c(NC[C@@H]5C[C@H](CO)NC5=O)nc(OC[C@@]56CCCN5C[C@H](F)C6)nc4c3F)c12 [Example 576, (3S,5R)-3-(((7-(8-ethyl-7-fluoro-3-hydroxynaphthalen-1-yl)-8-fluoro-2-(((2R,7aS)-2-fluorotetrahydro-1H-pyrrolizin-7a(5H)-yl)methoxy)pyrido[4,3-d]pyrimidin-4-yl)amino)methyl)-5-(hydroxymethyl)pyrrolidin-2-one]	-3%	-15%	-2%	1%
833 nM	2 nM	3 nM	505 nM	2 nM		494 nM		CCc1c(F)ccc2cc(O)cc(-c3ncc4c(N5CC6C(=O)NC(=O)C6C5C)nc(OC[C@@]56CCCN5C[C@H](F)C6)nc4c3F)c12 (stereo partly drawn) [Example 590, 5-(7-(8-ethyl-7-fluoro-3-hydroxynaphthalen-1-yl)-8-fluoro-2-(((2R,7aS)-2-fluorohexahydro-1H-pyrrolizin-7a-yl)methoxy)pyrido[4,3-d]pyrimidin-4-yl)-4-methyltetrahydropyrrolo[3,4-c]pyrrole-1,3(2H,3aH)-dione]				
245 nM			1540 nM		138 nM	357 nM		CCc1c(F)ccc2cc(O)cc(-c3ncc4c(N5C[C@H]6C[C@@H](C5)C(=O)NC6=O)nc(OC[C@@]56CCCN5C[C@H](F)C6)nc4c3F)c12 [Example 591, (1R,5S)-7-(7-(8-ethyl-7-fluoro-3-hydroxynaphthalen-1-yl)-8-fluoro-2-(((2R,7aS)-2-fluorotetrahydro-1H-pyrrolizin-7a(5H)-yl)methoxy)pyrido[4,3-d]pyrimidin-4-yl)-3,7-diazabicyclo[3.3.1]nonane-2,4-dione]				

The next lines start with the compound.

Structure (SMILES)	IC50 [2]	IC50 (KRas^G12R)	IC50 (KRas^G12V)	IC50 [3]	IC50 (KRas^G12D)	IC50 [1]	IC50 [5]	IC50 [4]	inhibition at 0.1 µM [1]	inhibition at 0.1 µM [4]	inhibition at 0.1 µM [2]	inhibition at 0.1 µM [3]
CCc1c(F)ccc2cc(O)cc(-c3ncc4c(N5CCC[C@@](C)(O)C5)nc(OCC5(CN)CC5)nc4c3F)c12 [Example 536, (R)-1-(2-((1-(aminomethyl)cyclopropyl)methoxy)-7-(8-ethyl-7-fluoro-3-hydroxynaphthalen-1-yl)-8-fluoropyrido[4,3-d]pyrimidin-4-yl)-3-methylpiperidin-3-ol]	3440 nM	9 nM	5 nM	4550 nM	5 nM				-9%	9%		
CCc1c(F)ccc2cc(O)cc(-c3ncc4c(N5CCC[C@H](C)C5)nc(OC[C@@]56CCCN5C[C@H](F)C6)nc4c3F)c12 [Example 541, 5-ethyl-6-fluoro-4-(8-fluoro-2-(((2R,7aS)-2-fluorohexahydro-1H-pyrrolizin-7a-yl)methoxy)-4-((S)-3-methylpiperidin-1-yl)pyrido[4,3-d]pyrimidin-7-yl)naphthalen-2-ol]	240 nM			198 nM		107 nM	216 nM	208 nM				
CCc1c(F)ccc2cc(O)cc(-c3ncc4c(N5CCC[S+]([O-])CC5)nc(OC[C@@]56CCCN5C[C@H](F)C6)nc4c3F)c12 (stereo partly drawn) [Example 558, 4-(7-(8-ethyl-7-fluoro-3-hydroxynaphthalen-1-yl)-8-fluoro-2-(((2R,7aS)-2-fluorohexahydro-1H-pyrrolizin-7a-yl)methoxy)pyrido[4,3-d]pyrimidin-4-yl)-1,4-thiazepane 1-oxide]	603 nM	< 2 nM	< 2 nM	312 nM	< 2 nM		822 nM					
CCc1c(F)ccc2cc(O)cc(-c3ncc4c(NCC5(C)CC(=O)NC5=O)nc(OC[C@@]56CCCN5C[C@H](F)C6)nc4c3F)c12 (stereo partly drawn) [Example 566, 3-(((7-(8-ethyl-7-fluoro-3-hydroxynaphthalen-1-yl)-8-fluoro-2-(((2R,7aS)-2-fluorotetrahydro-1H-pyrrolizin-7a(5H)-yl)methoxy)pyrido[4,3-d]pyrimidin-4-yl)amino)methyl)-3-methylpyrrolidine-2,5-dione]	138 nM	< 2 nM	3 nM	760 nM	3 nM	47 nM	130 nM	72 nM				
CCc1c(F)ccc2cc(O)cc(-c3ncc4c(N5CC6COCC(CO)(C5)C6(F)F)nc(OC[C@@]56CCCN5C[C@H](F)C6)nc4c3F)c12 (stereo partly drawn) [Example 645, 4-(4-(9,9-difluoro-1-(hydroxymethyl)-3-oxa-7-azabicyclo[3.3.1]nonan-7-yl)-8-fluoro-2-(((2R,7aS)-2-fluorotetrahydro-1H-pyrrolizin-7a(5H)-yl)methoxy)pyrido[4,3-d]pyrimidin-7-yl)-5-ethyl-6-fluoronaphthalen-2-ol]	3720 nM	257 nM	139 nM	4640 nM	313 nM				4%	6%		
CCc1c(F)ccc2cc(O)cc(-c3ncc4c(NC5CCCc6c(C(=O)N(C)C)nn(C)c65)nc(OC[C@@]56CCCN5C[C@H](F)C6)nc4c3F)c12 (stereo partly drawn) [Example 672, 7-((7-(8-ethyl-7-fluoro-3-hydroxynaphthalen-1-yl)-8-fluoro-2-(((2R,7aS)-2-fluorohexahydro-1H-pyrrolizin-7a-yl)methoxy)pyrido[4,3-d]pyrimidin-4-yl)amino)-N,N,1-trimethyl-4,5,6,7-tetrahydro-1H-indazole-3-carboxamide]	1260 nM	4 nM	5 nM	469 nM	8 nM		541 nM					
CCc1c(F)ccc2cc(O)cc(-c3ncc4c(N5CCC[C@@](C)(O)C5)nc(OCC5(CN(C)C)CC5C)nc4c3F)c12 (stereo partly drawn) [Example 702, (3R)-1-(2-((1-((dimethylamino)methyl)-2-methylcyclopropyl)methoxy)-7-(8-ethyl-7-fluoro-3-hydroxynaphthalen-1-yl)-8-fluoropyrido[4,3-d]pyrimidin-4-yl)-3-methylpiperidin-3-ol]	149 nM			32 nM					61%	37%	7%	56%
CCc1c(F)ccc2cc(O)cc(-c3ncc4c(N5CC6CCC(CCC(N)=O)(C6)C5)nc(OC[C@@]56CCCN5C[C@H](F)C6)nc4c3F)c12 (stereo partly drawn) [Example 910, 3-(3-(7-(8-ethyl-7-fluoro-3-hydroxynaphthalen-1-yl)-8-fluoro-2-(((2R,7aS)-2-fluorotetrahydro-1H-pyrrolizin-7a(5H)-yl)methoxy)pyrido[4,3-d]pyrimidin-4-yl)-3-azabicyclo[3.2.1]octan-1-yl)propanamide]	1670 nM	9 nM	8 nM	8160 nM	22 nM							
